The results in this text go back to patent US20220259593A1, “CONTROL OF MAMMALIAN GENE DOSAGE USING CRISPR” (The Regents of the University of California, priority 2019, published 2022).

The subject of series [1] is K562 CRISPRi cells. As to the kind of experiment: Perturb-seq pooled growth measurement (sgRNA counts, growth phenotype γ, relative activity). Conditions: γ relative to perfectly matched sgRNA (_00) of the same gene, day 10. In kind it is cell-based, human.
Series [2] has as its system K562 CRISPRi cells. Described as above. In kind it is cell-based, human. Conditions: for gamma_day5 / gamma_day10: pooled growth phenotype γ of the Perturb-seq sgRNA; for gamma_day5: day 5, K562 CRISPRi cells; for gamma_day10: day 10, K562 CRISPRi cells; for relative_activity_day5: γ relative to perfectly matched sgRNA (_00) of the same gene, day 5. The method, boiled down:
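CRISPRi K562 cells from the Perturb-seq transduced pool; 500,000-cell samples taken days two, seven and twelve post-transduction. sgRNA amplicons from genomic DNA sequenced; growth phenotypes from normalized sgRNA abundances at days seven and twelve versus day two. Relative activity assigned from day seven (five days' growth).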

In turn, “POLR1D_ + _28196016.23-P1_07 (guide GGGAAGCAAGGAGCGACCGA; listed as DNA, chemistry not fully specified)” came in with a relative_activity_day10 in series [1] of 0.3911. In series [2], this substance displayed a gamma_day5 of −0.3019, a gamma_day10 of −0.243 and a relative_activity_day5 of 0.3976.
For “POLR1D_ + _28196016.23-P1_08 (guide GGGAAGCAGGGACCGACCGA; listed as DNA, chemistry not fully specified)” the same measures were 1.017, −0.8088, −0.6317 and 1.065.
Regarding “POLR2H_ + _184081251.23-P1P2_00 (guide GGGGCCACGAGAGCAGCAGA; listed as DNA, chemistry not fully specified)”, the relative_activity_day10 in series [1] turned out to be 1. In series [2], the gamma_day5 is −1.149, the gamma_day10 is reported as −0.6391 and the relative_activity_day5 is on record as 1.
With “POLR2H_ + _184081251.23-P1P2_07 (guide GGGGCCACGAGTGCAGCAGA; listed as DNA, chemistry not fully specified)”, the relative_activity_day10 in series [1] stood at 0.223. Besides, in series [2], the gamma_day5 was −0.1894, the gamma_day10 is given as −0.1426 and the relative_activity_day5 worked out at 0.1648.
As for “POLR2H_ + _184081251.23-P1P2_08 (guide GGGGCCACGCGAGCAGCAGA; listed as DNA, chemistry not fully specified)”, the relative_activity_day10 in series [1] is recorded as 0.5225. In series [2], this substance yielded a gamma_day5 of −0.5208, a gamma_day10 of −0.334 and a relative_activity_day5 of 0.4532.
The like results for “POLR2H_ + _184081251.23-P1P2_11 (guide GGGGCCACGAGAGCAGCGGA; listed as DNA, chemistry not fully specified)” were, in that order, 0.8554, −0.9966, −0.5467 and 0.8672.
In turn, “POLR2H_ + _184081251.23-P1P2_12 (guide GGGGCCACGAGAGCAGGAGA; listed as DNA, chemistry not fully specified)” showed a relative_activity_day10 in series [1] of 0.3595. In series [2], this substance returned a gamma_day5 of −0.3516, a gamma_day10 of −0.2298 and a relative_activity_day5 of 0.306.
Substance “RAN_ + _131356438.23-P1P2_00 (guide GGCGGTCGCTGCGCTTAGGG; listed as DNA, chemistry not fully specified)” showed a relative_activity_day10 in series [1] of 1. Also, in series [2], the gamma_day5 is reported as −0.1974, the gamma_day10 is −0.1615 and the relative_activity_day5 stood at 1.
For the substance “RAN_ + _131356438.23-P1P2_02 (guide GGCGGCCGCTGCGCTTAGGG; listed as DNA, chemistry not fully specified)”, the relative_activity_day10 in series [1] amounted to 1.264. In addition, in series [2], the gamma_day5 is −0.2316, the gamma_day10 was −0.2041 and the relative_activity_day5 came out at 1.173.
The like results for “RAN_ + _131356438.23-P1P2_03 (guide GGGGGTCGCTGCGCTTAGGG; listed as DNA, chemistry not fully specified)” were, in that order, 1.22, −0.2162, −0.197 and 1.095.
Turning to “RAN_ + _131356438.23-P1P2_04 (guide GGCGGTCGCGGCGCTTAGGG; listed as DNA, chemistry not fully specified)”, the relative_activity_day10 in series [1] is recorded as 0.5401. In series [2], this substance gave a gamma_day5 of −0.0859, a gamma_day10 of −0.08721 and a relative_activity_day5 of 0.4352.
